Assay results reported in patent US20090030037A1, “Sustained Release Formulation and Dosing Schedules of Leukotriene Synthesis Inhibitor for Human Therapy” (deCODE Genetics ehf., priority 2005, published 2009).

Experiments:
Type in all cases: in vivo, human
sICAM = experiment: Study DG-031-201: ICAM (sICAM-1); details: [0%,6%], p=0.03
Experimental: Patients who met the study eligibility criteria were enrolled and randomized into 3 different dose-level groups: (1) 64 patients on 250 mg/day therapy with DG-031 (250 mg q.d.), vs placebo; (2) 64 patients on 500 mg/day therapy with DG-031 (250 mg b.i.d.) vs placebo; and (3) 63 patients on 750 mg/day therapy with DG-031 (250 mg t.i.d.) vs placebo. […] All patients received 3 tablets per day. Treatment periods, 4 weeks in duration each, were separated by a 2-week washout period. The placebo tablets were identical in shape, color, form and taste to the active tablets except that they contained no active drug ingredients. Treatment with DG-031 or placebo was in addition to the subject's standard care, including all medications and treatment plan as prescribed by the subject's cardiologist prior to enrolment. A total of 191 subjects were enrolled, with 172 completing all 8 visits or 8 patients short of the target of 180 patients. […]
All data were analyzed according to a pre-established statistical analysis plan (SAP) and by intention-to-treat (ITT). […] The difference between DG-031 and placebo treatment was the primary outcome, assessed separately for each of the biomarkers. […]

LTB4 = experiment: Study DG-031-204: serum LTB4; details: after 4 weeks
Experimental: (§1) An additional single site, open label study was carried out to obtain biomarker and safety data on additional DG-031 doses (i.e., 1000 mg and 1500 mg). This study examined the safety, tolerability and dose-related effects of DG-031 on inflammatory biomarkers including: LTB4, hsCRP, and MPO. A total of 119 patients with a prior history of CAD and MI were randomized to receive either 1000 mg DG-031 (500 mg BID) or 1500 mg DG-031 (500 mg TID) daily for 4-6 weeks. Treatment with DG-031 in addition to the subject's standard care, medication, and treatment, was prescribed by the patient's cardiologist. A majority of the subjects received statin therapy before, during and after the study. Follow-up assessments were performed 2 weeks after the end of study drug administration.
The biomarkers were analyzed as described in Example 1. Statistical analysis of the data was carried out using a one-sample t-test on change from baseline with a two-sided nominal significance level of 0.050. […]
Serum was collected weekly for determination of LTB4 concentration in response to the treatment with DG-031. […] Stimulated LTB4 effects measured in study DG-031-204, as shown in the raw data set out in Table 12, appear consistent with projections from the exposure-response analysis based on data from studies DG-031-201 and DG-031-203. […]

MPO = experiment: Study DG-031-204: plasma MPO; details: for Serum MPO (% change from baseline), mean response: after 4 weeks of DG-031 administration
Experimental: as §1
(§2) The biomarkers were analyzed as described in Example 1. Statistical analysis of the data was carried out using a one-sample t-test on change from baseline with a two-sided nominal significance level of 0.050. Biomarker concentrations were log-transformed and a simple last observation carried forward (LOCF) scheme was used to impute missing observations.
Plasma MPO concentration was measured weekly. MPO measurements in ionomycin-stimulated whole blood were also measured in a subset of patients at 4 weeks.

hsCRP = experiment: Study DG-031-204: hsCRP; details: after 4 weeks
Experimental: as §1, §2
Additionally, hsCRP was measured weekly and tended to decrease in the 1000 mg treatment group. […]

Prostaglandin F = experiment: Study DG-031-204: Prostaglandin F (PGF); details: after 4 weeks of treatment
Experimental: as §1, §2
Prostaglandin F (PGF) was measured at 2-week intervals.

Structure (SMILES): O=C(O)[C@@H](c1ccc(OCc2ccc3ccccc3n2)cc1)C1CCCC1 [DG-031, (R)-(+)-alpha-cyclopentyl-4-(2-quinolinylmethoxy)-Benzeneacetic acid]
- Effect on serum sICAM-1 (sICAM): reduced significantly
- Serum LTB4 (% change from baseline) (LTB4; 1000 mg (500 mg BID)): −73%
- Serum LTB4 (% change from baseline) (LTB4; 1500 mg (500 mg TID)): −50%
- Plasma MPO concentrations, change from baseline (MPO; 500 mg BID or TID, measured weekly): No changes from baseline
- Serum MPO (% change from baseline), mean response (MPO; 1000 mg (500 mg BID)): +3%
- Serum MPO (% change from baseline), mean response (MPO; 1500 mg (500 mg TID)): −12%
- hsCRP reduction, mean change from baseline (hsCRP; 1000 mg treatment group): 20%
- hsCRP reduction, mean change from baseline (hsCRP; 1500 mg treatment group): 3%
- Trends in PGF (Prostaglandin F): No significant trends
